Measured values as given in ChEMBL document CHEMBL1127612, “Maleimidoethyl 3-(tri-n-butylstannyl)hippurate: a useful radioiodination reagent for protein radiopharmaceuticals to enhance target selective radioactivity localization” (J Med Chem, 1994).

Tests used:
Details in all cases: in vivo
[1] = test system: Mus musculus; test: Tested for biodistribution of radioactivity after 10 min of intravenous injection in mice intestine; format: ADME, organism-based
[2] = test system: Mus musculus; test: Tested for biodistribution of radioactivity after 48 hr of intravenous injection in mice neck; format: ADME, organism-based
[3] = test system: Mus musculus; test: Tested for biodistribution of radioactivity after 10 min of intravenous injection in mice liver; format: ADME, organism-based
[4] = test system: Mus musculus; test: Tested for biodistribution of radioactivity after 10 min of intravenous injection in mice blood; format: ADME, organism-based
[5] = test system: Mus musculus; test: Tested for biodistribution of radioactivity after 3h of intravenous injection in mice liver; format: ADME, organism-based
[6] = test system: Mus musculus; test: Tested for biodistribution of radioactivity after 48 hr of intravenous injection in mice intestine; format: ADME, organism-based
[7] = test system: Mus musculus; test: Tested for biodistribution of radioactivity after 24 hr of intravenous injection in mice urine; format: ADME, organism-based
[8] = test system: Mus musculus; test: Tested for biodistribution of radioactivity after 1 hr of intravenous injection in mice spleen; format: ADME, organism-based
[9] = test system: Mus musculus; test: Tested for biodistribution of radioactivity after 24 hr of intravenous injection in mice liver; format: ADME, organism-based
[10] = test system: Mus musculus; test: Tested for biodistribution of radioactivity after 10 min of intravenous injection in mice lung; format: ADME, organism-based
[11] = test system: Mus musculus; test: Tested for biodistribution of radioactivity after 3h of intravenous injection in mice stomach; format: ADME, organism-based
[12] = test system: Mus musculus; test: Tested for biodistribution of radioactivity after 24 hr of intravenous injection in mice neck; format: ADME, organism-based
[13] = test system: Mus musculus; test: Tested for biodistribution of radioactivity after 6 hr of intravenous injection in mice intestine; format: ADME, organism-based
[14] = test system: Mus musculus; test: Tested for biodistribution of radioactivity after 72 hr of intravenous injection in mice neck; format: ADME, organism-based
[15] = test system: Mus musculus; test: Tested for biodistribution of radioactivity after 72 hr of intravenous injection in mice stomach; format: ADME, organism-based
[16] = test system: Mus musculus; test: Tested for biodistribution of radioactivity after 1 hr of intravenous injection in mice blood; format: ADME, organism-based
[17] = test system: Mus musculus; test: Tested for biodistribution of radioactivity after 1 hr of intravenous injection in mice lung; format: ADME, organism-based
[18] = test system: Mus musculus; test: Tested for biodistribution of radioactivity after 6 hr of intravenous injection in mice liver; format: ADME, organism-based
[19] = test system: Mus musculus; test: Tested for biodistribution of radioactivity after 6 hr of intravenous injection in mice neck; format: ADME, organism-based
[20] = test system: Mus musculus; test: Tested for biodistribution of radioactivity after 24 hr of intravenous injection in mice feces; format: ADME, organism-based
[21] = test system: Mus musculus; test: Tested for biodistribution of radioactivity after 1 hr of intravenous injection in mice neck; format: ADME, organism-based
[22] = test system: Mus musculus; test: Tested for biodistribution of radioactivity after 3h of intravenous injection in mice spleen; format: ADME, organism-based
[23] = test system: Mus musculus; test: Tested for biodistribution of radioactivity after 24 hr of intravenous injection in mice lung; format: ADME, organism-based
[24] = test system: Mus musculus; test: Tested for biodistribution of radioactivity after 24 hr of intravenous injection in mice blood; format: ADME, organism-based
[25] = test system: Mus musculus; test: Tested for biodistribution of radioactivity after 10 min of intravenous injection in mice stomach; format: ADME, organism-based
[26] = test system: Mus musculus; test: Tested for biodistribution of radioactivity after 1 hr of intravenous injection in mice stomach; format: ADME, organism-based
[27] = test system: Mus musculus; test: Tested for biodistribution of radioactivity after 48 hr of intravenous injection in mice stomach; format: ADME, organism-based
[28] = test system: Mus musculus; test: Tested for biodistribution of radioactivity after 72 hr of intravenous injection in mice liver; format: ADME, organism-based
[29] = test system: Mus musculus; test: Tested for biodistribution of radioactivity after 48 hr of intravenous injection in mice kidneys; format: ADME, organism-based
[30] = test system: Mus musculus; test: Tested for biodistribution of radioactivity after 48 hr of intravenous injection in mice liver; format: ADME, organism-based
[31] = test system: Mus musculus; test: Tested for biodistribution of radioactivity after 24 hr of intravenous injection in mice kidneys; format: ADME, organism-based, Kidney
[32] = test system: Mus musculus; test: Tested for biodistribution of radioactivity after 48 hr of intravenous injection in mice spleen; format: ADME, organism-based
[33] = test system: Mus musculus; test: Tested for biodistribution of radioactivity after 24 hr of intravenous injection in mice stomach; format: ADME, organism-based
[34] = test system: Mus musculus; test: Tested for biodistribution of radioactivity after 72 hr of intravenous injection in mice blood; format: ADME, organism-based
[35] = test system: Mus musculus; test: Tested for biodistribution of radioactivity after 6 hr of intravenous injection in mice spleen; format: ADME, organism-based
[36] = test system: Mus musculus; test: Tested for biodistribution of radioactivity after 6 hr of intravenous injection in mice blood; format: ADME, organism-based
[37] = test system: Mus musculus; test: Tested for biodistribution of radioactivity after 72 hr of intravenous injection in mice spleen; format: ADME, organism-based
[38] = test system: Mus musculus; test: Tested for biodistribution of radioactivity after 72 hr of intravenous injection in mice kidneys; format: ADME, organism-based
[39] = test system: Mus musculus; test: Tested for biodistribution of radioactivity after 6 hr of intravenous injection in mice kidneys; format: ADME, organism-based, Kidney
[40] = test system: Mus musculus; test: Tested for biodistribution of radioactivity after 1 hr of intravenous injection in mice kidneys; format: ADME, organism-based, Kidney
[41] = test system: Mus musculus; test: Tested for biodistribution of radioactivity after 24 hr of intravenous injection in mice intestine; format: ADME, organism-based
[42] = test system: Mus musculus; test: Tested for biodistribution of radioactivity after 48 hr of intravenous injection in mice lung; format: ADME, organism-based
[43] = test system: Mus musculus; test: Tested for biodistribution of radioactivity after 10 min of intravenous injection in mice neck; format: ADME, organism-based
[44] = test system: Mus musculus; test: Tested for biodistribution of radioactivity after 72 hr of intravenous injection in mice lung; format: ADME, organism-based
[45] = test system: Mus musculus; test: Tested for biodistribution of radioactivity after 10 min of intravenous injection in mice spleen; format: ADME, organism-based
[46] = test system: Mus musculus; test: Tested for biodistribution of radioactivity after 3h of intravenous injection in mice neck; format: ADME, organism-based
[47] = test system: Mus musculus; test: Tested for biodistribution of radioactivity after 6 hr of intravenous injection in mice lung; format: ADME, organism-based
[48] = test system: Mus musculus; test: Tested for biodistribution of radioactivity after 1 hr of intravenous injection in mice liver; format: ADME, organism-based
[49] = test system: Mus musculus; test: Tested for biodistribution of radioactivity after 72 hr of intravenous injection in mice intestine; format: ADME, organism-based
[50] = test system: Mus musculus; test: Tested for biodistribution of radioactivity after 3h of intravenous injection in mice kidneys; format: ADME, organism-based, Kidney
[51] = test system: Mus musculus; test: Tested for biodistribution of radioactivity after 48 hr of intravenous injection in mice blood; format: ADME, organism-based
[52] = test system: Mus musculus; test: Tested for biodistribution of radioactivity after 24 hr of intravenous injection in mice spleen; format: ADME, organism-based
[53] = test system: Mus musculus; test: Tested for biodistribution of radioactivity after 3h of intravenous injection in mice lung; format: ADME, organism-based
[54] = test system: Mus musculus; test: Tested for biodistribution of radioactivity after 3h of intravenous injection in mice blood; format: ADME, organism-based
[55] = test system: Mus musculus; test: Tested for biodistribution of radioactivity after 10 min of intravenous injection in mice kidneys; format: ADME, organism-based
[56] = test system: Mus musculus; test: Tested for biodistribution of radioactivity after 1 hr of intravenous injection in mice intestine; format: ADME, organism-based
[57] = test system: Mus musculus; test: Tested for biodistribution of radioactivity after 3h of intravenous injection in mice intestine; format: ADME, organism-based
[58] = test system: Mus musculus; test: Tested for biodistribution of radioactivity after 6 hr of intravenous injection in mice stomach; format: ADME, organism-based

NCCCCC(N)C(=O)NC(=O)c1cccc(I)c1 (stereo not drawn)
Dose/organ [1]: 0.85%
Dose/organ [2]: 0.34%
Dose/organ [3]: 15.66%
Dose/organ [4]: 38.38%
Dose/organ [5]: 11.17%
Dose/organ [6]: 0.91%
Dose/organ [7]: 10.09%
Dose/organ [8]: 6.38%
Dose/organ [9]: 4.94%
Dose/organ [10]: 11.91%
Dose/organ [11]: 1.31%
Dose/organ [12]: 0.34%
Dose/organ [13]: 2.43%
Dose/organ [14]: 0.25%
Dose/organ [15]: 0.4%
Dose/g [16]: 31.31%
Dose/organ [17]: 11.1%
Dose/organ [18]: 9.83%
Dose/organ [19]: 0.55%
Dose/organ [20]: 0.55%
Dose/organ [21]: 0.83%
Dose/organ [22]: 5.7%
Dose/organ [23]: 5.55%
Dose/g [24]: 14.39%
Dose/organ [25]: 0.44%
Dose/organ [26]: 0.81%
Dose/organ [27]: 0.42%
Dose/organ [28]: 3.34%
Dose/organ [29]: 3.27%
Dose/organ [30]: 3.84%
Dose/organ [31]: 4.23%
Dose/organ [32]: 2.35%
Dose/organ [33]: 0.49%
Dose/g [34]: 11.5%
Dose/organ [35]: 5.48%
Dose/g [36]: 23.13%
Dose/organ [37]: 1.83%
Dose/organ [38]: 2.73%
Dose/organ [39]: 6.57%
Dose/organ [40]: 8.15%
Dose/organ [41]: 1.06%
Dose/organ [42]: 4.25%
Dose/organ [43]: 0.66%
Dose/organ [44]: 3.55%
Dose/organ [45]: 7.07%
Dose/organ [46]: 0.72%
Dose/organ [47]: 6.9%
Dose/organ [48]: 14.38%
Dose/organ [49]: 0.83%
Dose/organ [50]: 7.4%
Dose/g [51]: 12.64%
Dose/organ [52]: 3.37%
Dose/organ [53]: 7.97%
Dose/g [54]: 26.13%
Dose/organ [55]: 6.31%
Dose/organ [56]: 2.03%
Dose/organ [57]: 2.88%
Dose/organ [58]: 1.3%
